PMC10363981, “Optimizing the enzymatic release of MMAE from isoDGR-based small molecule drug conjugate by incorporation of a GPLG-PABC enzymatically cleavable linker” (Frontiers in Pharmacology, 2023)
Where “and” joins values, the source holds several entries; their conditions need not be identical. Equal values may be shown once. *1 amine or outer side, *2 acyl side, *3 side chain or, on linkers, in order; H or OH if unused. Where a SMILES comes first, the peptide text is derived from it. [ ]: non-standard residue; d: D form. The star is where a group is joined. Dolaproine = CO[C@@H]([C@@H]1CCCN1)[C@@H](C)C(=O)O; Dil = CC[C@H](C)[C@H](NC)[C@@H](CC(=O)O)OC; PABC = O=C(OCc1ccc(N[*:1])cc1)[*:2]; X1 = C[C@@H](N*)[C@@H](O)c1ccccc1; NMeV = CN[C@H](C(=O)O)C(C)C

Experiments:
[1] = target: T1, recombinant human MMP-2 protein (Active) (Homo sapiens, UniProt P08253); test: Enzymatic-cleavage assay with MMP-2 enzyme; format: in vitro ADME; conditions: recombinant human MMP-2, enzyme:linker 1:20 (w/w), Tris·HCl buffer pH 7.4, 37 °C, 74 h, HPLC-UV 254 nm, by retention time vs free MMAE
T1 construct: with the active form of MMP-2 enzyme; purchased Abcam ab81550
T1 sequence (P08253 110-660): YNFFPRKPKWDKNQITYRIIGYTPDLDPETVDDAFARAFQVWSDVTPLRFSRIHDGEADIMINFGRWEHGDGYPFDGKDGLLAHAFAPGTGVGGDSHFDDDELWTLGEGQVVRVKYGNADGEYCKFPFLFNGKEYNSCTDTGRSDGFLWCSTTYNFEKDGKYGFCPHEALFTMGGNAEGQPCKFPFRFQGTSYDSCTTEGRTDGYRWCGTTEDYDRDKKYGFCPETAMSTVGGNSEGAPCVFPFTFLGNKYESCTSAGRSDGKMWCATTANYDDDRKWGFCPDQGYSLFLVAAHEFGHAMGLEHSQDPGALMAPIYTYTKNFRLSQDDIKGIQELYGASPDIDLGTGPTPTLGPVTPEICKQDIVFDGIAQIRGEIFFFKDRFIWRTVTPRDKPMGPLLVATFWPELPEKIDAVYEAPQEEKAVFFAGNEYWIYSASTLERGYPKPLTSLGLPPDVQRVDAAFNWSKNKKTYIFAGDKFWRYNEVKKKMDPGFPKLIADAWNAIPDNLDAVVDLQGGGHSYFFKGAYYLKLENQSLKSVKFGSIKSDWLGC
Protocol: The cleavage test with the MMP-2 enzyme was performed using recombinant human MMP-2 protein (Active) purchased from Abcam (ab81550). A buffer solution Tris∙HCl (50 mM), NaCl (0.2 M), CaCl2 (10 mM), Brij-35 (0.05%), ZnSO4 (50 µM), pH 7.4 was prepared in accordance with the literature ([Tauro et al., 2008]). A solution of EDTA (50 mM) was prepared for stopping the MMP-2 activity. For the assay, the MMP-2 enzyme (10 µg) was diluted with 100 µL Milli-Q Water, accordingly to the data sheet. A solution of the H2N-GPLG-PABC-MMAE 7 was prepared (0.105 mg in 0.881 mL of buffer solution). To start the assay, 25 µL MMP-2 enzyme was added to 475 µL of the linker solution to have 1:20 (w/w) enzyme: linker ratio. […] The resulting solution was diluted with 180 µL Milli-Q Water and 70 µL of acetonitrile (MeCN) and analyzed by analytical HPLC SHIMADZU LC-20AP equipped with diode array UV detector and LiChrosorb RP-18 (5 μm) C18 column. […]
Samples were analyzed using analytical HPLC SHIMADZU LC -20AP equipped with diode array UV detector and LiChrosorb® RP-18 (5 μm) C18 column, flow rate: 1 mL/min., gradient: from 90% (H2O + 0.1% TFA) / 10% (MeCN) to 40% (H2O + 0.1% TFA) / 60% (MeCN) in 16 min. to 10% (H2O + 0.1% TFA) / 90% (MeCN) in 9 min. to 10% (H2O + 0.1% TFA) / 90% (MeCN) in 5 min. to 90% (H2O + 0.1% TFA) / 10% (MeCN) in 5 min. to 90% (H2O + 0.1% TFA) / 10% (MeCN) in 5 min. […]

[2] = system: A549 human lung cancer cells; test: In vitro antiproliferative activity, "kiss-and-run" washout experiment (30 min + washout + up to 72 h); format: cell-based; conditions: MTT, 30 min treatment, washout, further incubation up to 72 h, 5% serum final; αVβ3 low expressing line
Protocol: (§1) U87MG human malignant glioma, SK-MEL-28 human melanoma, SK-OV-3 human ovarian cancer, and A549 human lung cancer cell lines were purchased from ATCC. The cells were cultured in Dulbecco’s Modified Eagle’s Medium (DMEM; Biosera, Nuaille, France), supplemented with 10% heat-inactivated Fetal Bovine Serum (FBS; Biosera), and with 1% Penicillin/Streptomycin (Biosera). Cells were cultured in sterile T75 flasks with ventilation cap (Sarstedt, Nümbrecht, Germany) at 37 °C in a humidified atmosphere with 5% CO2 in ESCO CelCulture Incubator (ESCO, Friedberg, Germany). Manipulations with the cells were performed in biosafety cabinet (laminar) ESCO Sentinel Gold class II model AC2-4E8 (ESCO).
(§2) After standard trypsinization and harvesting cells by trypsin (Biosera), ethylenediaminetetraacetic acid (EDTA; Biosera) and PBS solution, 6×10^3 cells per well were seeded in serum containing (10%) growth medium to 96-well plates with flat bottom (Eppendorf, Hamburg, Germany), in a 100 μL volume per well, and incubated at 37°C.
(§3) In the wash out experiment, cells were incubated with the compounds (5% serum final) for 30 min, then they were washed out, and additionally incubated in growth medium (5% serum final) up to 72 h. The control wells were treated only with serum free medium (5% serum final).
(§4) For the evaluation of the in vitro antiproliferative activity of compounds, the cell viability was determined by MTT assay (3-(4,5-dimethylthiazol-2-yl)-2,5-diphenyl-tetrazolium bromide) obtained from Duchefa Biochemie (Haarlem, Netherlands).
(§5) 22 µL of MTT solution (5 mg/mL in PBS, 0.5 mg/mL final) was added to each well and after 2 h incubation at 37°C, the supernatant was removed. […] Average background absorbance (DMSO-Ethanol) was subtracted from absorbance values of control and treated wells, and cell viability was determined relative to untreated (control) wells where cell viability was arbitrarily set to 100%. […] The experiments were done in triplicate and each experiment was repeated three times.
(§6) Recently, a new protocol for evaluating the antiproliferative activity and the targeting ability of integrin-ligand based conjugates was developed by the group of Prof. […] In this procedure, which we named “kiss-and-run” experiment, after very short initial contact times (15–30 min) of the toxin with the cells in vitro, the solution is drained, and cells are resuspended in the culture medium for a 72 h incubation. This protocol is aimed at simulating the rapid clearance of the drugs that occurs in vivo in the extracellular tumor environment, thus highlighting the ability of the conjugate to bind the integrin receptor on the cell surface.

[3] = system: SK-MEL-28 human melanoma cells; test: as above; format: cell-based; conditions: MTT, 30 min treatment, washout, further incubation up to 72 h, 5% serum final
Protocol: as §1, §2, §3, §4, §5, §6

[4] = system: SK-OV-3 human ovarian cancer cells; test: as above; format: cell-based; conditions: MTT, 30 min treatment, washout, further incubation up to 72 h, 5% serum final
Protocol: as §1, §2, §3, §4, §5, §6

[5] = system: U87MG human malignant glioma cells; test: as above; format: cell-based; conditions: MTT, 30 min treatment, washout, further incubation up to 72 h, 5% serum final
Protocol: as §1, §2, §3, §4, §5, §6

[6] = system: SK-MEL-28 cells; test: In vitro antiproliferative activity in the presence of MMP-2 inhibitor; format: cell-based, human; conditions: 16 h pre-incubation with MMP-2 inhibitor 10 µM, then 72 h continuous treatment, 5% serum final; average ± SD, triplicate; read-out: IC50 MMP-2 inhibitor + Treatment 72 h SK-MEL-28 (αVβ3 +)
Protocol: as §4
(§7) 22 µL of MTT solution (5 mg/mL in PBS, 0.5 mg/mL final) was added to each well and after 2 h incubation at 37°C, the supernatant was removed. The precipitated purple formazan crystals were dissolved in 100 µL of a 1:1 solution of dimethylsulfoxide (DMSO; Merck, St. Louis, MO, United States): 96% Ethanol (Molar Chemicals Kft., Halásztelek, Hungary) and the absorbance was measured after 15 min at λ = 570 nm by using microplate reader CLARIOstar Plus (BMG Labtech, Ortenberg, Germany). Average background absorbance (DMSO-Ethanol) was subtracted from absorbance values of control and treated wells, and cell viability was determined relative to untreated (control) wells where cell viability was arbitrarily set to 100%. Absorbance values of treated samples were normalized versus untreated control samples and interpolated by nonlinear regression analysis with GraphPad Prism 6 software (GraphPad, La Jolla, San Diego, CA, United States) to generate sigmoidal dose-response curves from which the 50% inhibitory concentration (IC50) values of the compounds were calculated and presented as nanomolar (nM) units. The experiments were done in triplicate and each experiment was repeated three times.
(§8) The conjugate 2 and the free MMAE were tested in presence of the MMP-2 inhibitor cis-9-octadecenoyl-N-hydroxylamine (Merck) dissolved in DMSO ([You et al., 2018]). The three αVβ3 integrin and MMP-2 overexpressing cancer cell lines (U87MG, SK-MEL-28, […]) were seeded with serum containing medium ([Ellijimi et al., 2018]; [Shim et al., 2019]) and, after 8 h, were washed-out. Then, 100 µL per well of MMP-2 inhibitor (10 µM final concentration) were added and cells were incubated for 16 h, prior to the treatment. Later, the conjugate 2 and free MMAE were dissolved in 10% serum containing medium and added to reach the same concentrations evaluated in the previous test in a final volume of 100 µL per well and incubated (5% serum final) continuously for 72 h of the treatment. The experiments were performed in triplicate.

[7] = system: SK-OV-3 cells; test: as above; format: cell-based, human; conditions: 16 h pre-incubation with MMP-2 inhibitor 10 µM, then 72 h continuous treatment, 5% serum final; average ± SD, triplicate; read-out: IC50 MMP-2 inhibitor + Treatment 72 h SK-OV-3 (αVβ3 +)
Protocol: as §4, §7, §8

[8] = system: U87MG cells; test: as above; format: cell-based, human; conditions: 16 h pre-incubation with MMP-2 inhibitor 10 µM, then 72 h continuous treatment, 5% serum final; average ± SD, triplicate; read-out: IC50 MMP-2 inhibitor + Treatment 72 h U87MG (αVβ3 +)
Protocol: as §4, §7, §8

[9] = system: SK-MEL-28 human melanoma cells; test: In vitro antiproliferative activity, MTT, 72 h continuous treatment (no-washout); format: cell-based; conditions: MTT, 72 h continuous treatment, no washout, 5% serum final; triplicate, repeated three times
Protocol: as §1, §2
(§9) […] The control wells were treated only with serum free medium (5% serum final).
as §4, §5

[10] = system: U87MG human malignant glioma cells; test: as above; format: cell-based; conditions: MTT, 72 h continuous treatment, no washout, 5% serum final; triplicate, repeated three times
Protocol: as §1, §2, §9, §4, §5

[11] = system: A549 human lung cancer cells; test: as above; format: cell-based; conditions: MTT, 72 h continuous treatment, no washout, 5% serum final; αVβ3 low expressing line; triplicate, repeated three times
Protocol: as §1, §2, §3, §4, §5

[12] = system: SK-OV-3 human ovarian cancer cells; test: as above; format: cell-based; conditions: MTT, 72 h continuous treatment, no washout, 5% serum final; triplicate, repeated three times
Protocol: as §1, §2, §3, §4, §5

Row | Structure (SMILES) | release of free MMAE on incubation with active MMP-2 [1] | IC50 [2] | IC50 [3] | IC50 [4] | IC50 [5] | IC50 [6] | IC50 [7] | IC50 [8] | IC50 [9] | IC50 72h SK-MEL-28 [9] | IC50 [10] | IC50 [11] | IC50 [12]
1 | CC[C@H](C)[C@@H]([C@@H](CC(=O)N1CCC[C@H]1[C@H](OC)[C@@H](C)C(=O)N[C@H](C)[C@@H](O)c1ccccc1)OC)N(C)C(=O)[C@@H](NC(=O)[C@H](C(C)C)N(C)C(=O)OCc1ccc(NC(=O)CNC(=O)[C@H](CC(C)C)NC(=O)[C@@H]2CCCN2C(=O)CN)cc1)C(C)C [compound 7, H2N-GPLG-PABC-MMAE] (H-GPLG[PABC][NMeV]V[Dil][Dolaproine]-X1) | not observed |  |  |  |  |  |  |  |  |  |  |  | 
2 | N=C(N)NCCC[C@@H]1NC(=O)CNC(=O)C[C@@H](C(=O)O)NC(=O)C[C@H]2NC(=O)[C@H](CNC1=O)N(Cc1ccccc1)C2=O [compound 10, cyclo[DKP-isoDGR], reference compound] |  | > 20000 nM | > 20000 nM | > 20000 nM | > 20000 nM |  |  |  |  |  |  |  | 
3 | CCCCCCCC/C=C\CCCCCCCC(=O)NO [MMP-2 Inhibitor, cis-9-octadecenoyl-N-hydroxylamide] |  |  |  |  |  | > 20000 nM | > 20000 nM | > 20000 nM |  |  |  |  | 
4 | CC[C@H](C)[C@@H]([C@@H](CC(=O)N1CCC[C@H]1[C@H](OC)[C@@H](C)C(=O)N[C@H](C)[C@@H](O)c1ccccc1)OC)N(C)C(=O)[C@@H](NC(=O)[C@@H](NC)C(C)C)C(C)C [MMAE, monomethyl auristatin E] (H-[NMeV]V[Dil][Dolaproine]-X1) |  | 266 ± 16.1 nM | 1400 ± 137 nM | 206 ± 23.6 nM | 2130 ± 216 nM | 1.9 ± 0.778 nM | 0.0334 ± 0.0119 nM | 0.374 ± 0.132 nM | 2.39 ± 0.395 nM | very low nanomolar range | 0.225 ± 0.0126 nM | 0.0688 ± 0.0021 nM | 0.03 nM and 0.0307 nM
